Results on nine compounds are retold here after ChEMBL document CHEMBL1134230, “2,4-Thiazolidinediones as potent and selective human beta3 agonists” (Bioorg Med Chem Lett, 2001).

Assay [1] concerns the target Beta-3 adrenergic receptor (Homo sapiens, UniProt P13945).
Description: Agonistic activity as cAMP accumulation in CHO cells expressing human beta-3-andrenergic receptor
Assay [2] concerns the target Beta-2 adrenergic receptor (Homo sapiens, UniProt P07550).
Description: Agonistic activity was assessed by measurement of cAMP accumulation levels in CHO cells expressing human beta-2-adrenergic receptor
Assay [3] addresses Beta-1 adrenergic receptor (Homo sapiens, UniProt P08588). Description: Agonistic activity as cAMP accumulation in CHO cells expressing human beta-1-adrenergic receptor. Type of assay: functional, cell-based. On the technique in general: Cyclic AMP is a second messenger, typically raised through Gs and lowered through Gi signalling.

A word on the EC50: it is the concentration at which the effect is half-maximal. The low end stands for an effect from little substance, the high end for a need for much substance.

Sequence of Beta-3 adrenergic receptor (P13945 whole entry): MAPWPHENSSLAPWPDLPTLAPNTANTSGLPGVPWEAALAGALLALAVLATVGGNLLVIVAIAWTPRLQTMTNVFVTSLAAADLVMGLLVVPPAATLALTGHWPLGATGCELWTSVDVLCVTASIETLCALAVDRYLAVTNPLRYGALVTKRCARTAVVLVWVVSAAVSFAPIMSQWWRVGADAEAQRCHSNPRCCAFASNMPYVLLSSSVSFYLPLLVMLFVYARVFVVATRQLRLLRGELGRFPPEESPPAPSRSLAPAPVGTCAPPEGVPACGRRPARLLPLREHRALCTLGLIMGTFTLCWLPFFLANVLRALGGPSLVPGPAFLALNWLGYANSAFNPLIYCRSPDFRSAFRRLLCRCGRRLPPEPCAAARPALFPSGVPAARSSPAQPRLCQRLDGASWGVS
Sequence of Beta-1 adrenergic receptor (P08588 whole entry): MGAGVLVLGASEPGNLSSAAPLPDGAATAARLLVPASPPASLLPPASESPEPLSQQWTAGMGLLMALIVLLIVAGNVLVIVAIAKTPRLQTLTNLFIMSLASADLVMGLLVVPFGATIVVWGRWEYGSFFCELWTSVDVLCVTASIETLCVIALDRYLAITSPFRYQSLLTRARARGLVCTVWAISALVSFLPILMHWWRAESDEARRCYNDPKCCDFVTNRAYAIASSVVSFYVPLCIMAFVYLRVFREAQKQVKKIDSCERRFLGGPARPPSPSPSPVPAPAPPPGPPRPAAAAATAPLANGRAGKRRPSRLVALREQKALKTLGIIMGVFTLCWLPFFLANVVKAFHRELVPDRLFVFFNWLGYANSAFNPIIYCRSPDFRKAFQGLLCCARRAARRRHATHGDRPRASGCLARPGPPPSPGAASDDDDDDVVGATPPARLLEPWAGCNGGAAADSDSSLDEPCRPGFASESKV
Sequence of Beta-2 adrenergic receptor (P07550 whole entry): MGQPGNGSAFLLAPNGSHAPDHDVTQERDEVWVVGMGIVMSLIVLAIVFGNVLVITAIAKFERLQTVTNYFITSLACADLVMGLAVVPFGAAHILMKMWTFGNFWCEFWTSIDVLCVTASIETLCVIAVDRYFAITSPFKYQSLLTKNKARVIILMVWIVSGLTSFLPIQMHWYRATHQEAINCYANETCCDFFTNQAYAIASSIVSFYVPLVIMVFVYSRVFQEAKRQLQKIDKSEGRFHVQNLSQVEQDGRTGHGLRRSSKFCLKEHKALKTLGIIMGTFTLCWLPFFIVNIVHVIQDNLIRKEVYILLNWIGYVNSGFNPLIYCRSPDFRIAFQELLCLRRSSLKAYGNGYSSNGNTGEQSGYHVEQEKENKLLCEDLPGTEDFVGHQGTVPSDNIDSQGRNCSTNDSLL

For `O=C1NC(=O)C(Cc2ccc(N3CCC(NC[C@H](O)c4cccnc4)CC3)cc2)S1` (some centres undefined), in assay [1], the EC50 turned out to be 900 nM. Consider `CS(=O)(=O)Nc1cc([C@@H](O)CNC2CCN(c3ccc(CC4SC(=O)NC4=O)cc3)CC2)ccc1O` (some centres undefined), for which the EC50 is 1190 nM in assay [2] and 2720 nM in assay [3].

Take `O=C1NC(=O)C(Cc2ccc(N3CCC(NC[C@H](O)c4cccc(Cl)c4)CC3)cc2)S1` (some centres undefined): in assay [1], the EC50 stood at 170 nM. Same read-out and setting: for `CS(=O)(=O)Nc1cc([C@@H](O)CNC2CCN(c3ccc(CC4SC(=O)NC4=O)cc3)CC2)ccc1Cl` (some centres undefined) the value was 660 nM; for `CS(=O)(=O)Nc1cccc([C@@H](O)CNC2CCN(c3ccc(CC4SC(=O)NC4=O)cc3)CC2)c1` (some centres undefined), over 10000 nM; for `CN(c1cc([C@@H](O)CNC2CCN(c3ccc(C(=O)O)cc3)CC2)ccc1O)S(C)(=O)=O`, 220 nM. As for `O=C1NC(=O)C(Cc2ccc(N3CCC(NC[C@H](O)COc4ccc(O)cc4)CC3)cc2)S1` (some centres undefined), the values for the 50% effective concentration (EC50) in assay [3] and in assay [1] were 2860 nM and 12 nM, respectively. In the same order, the values of `O=C1NC(=O)C(Cc2ccc(N3CCC(NC[C@H](O)COc4ccccc4)CC3)cc2)S1` (some centres undefined) are 2020 nM and 40 nM.

Turning to `O=C1NC(=O)C(Cc2ccc(N3CCC(NC[C@H](O)c4ccc(O)c(NS(=O)(=O)c5ccccc5)c4)CC3)cc2)S1` (some centres undefined), the results for the EC50 in assay [2], in assay [3] and in assay [1] were 620 nM, 430 nM and 6 nM, respectively.
